The values below come from patent US20200216906A1, “METHODS AND COMPOSITIONS RELATING TO THE DIAGNOSIS AND TREATMENT OF CANCER” (PRESIDENT AND FELLOWS OF HARVARD COLLEGE, priority 2015, published 2020).

Entries after “also recorded” stand apart in the source; their conditions may differ. Like-named read-outs stand apart in the source and are kept apart here.

Common to all, as to format: cell-based, human
Assay [1] has as its system Panc02.13 cells expressing vector only (02.13-WT). The experiment in a line: Kinetic cell growth assay, Panc02.13 cells expressing vector only. The method, then:
(§1) Panc02.13 cells were used to express YAPS6A (or vector controls) under sparse and dense cultures. Expression was confirmed by confocal microscopy (data not shown). Suppression of the Hippo pathway by expression of non-phospho, active form of YAP (YAPS6A) sensitized pancreatic cancer cells to gemcitabine and 5-FU (FIGS. 6 and 7). Apoptosis was measured by immunobloting with cleaved caspases 3/7 or PARP. Blots were also stained with anti-β-actin for loading control. The effect of Hippo pathway suppression on gemcitabine and 5-FU senstitization was maintained in 3D spheroid culture (FIG. 8). The effects of eleven cytotoxic drugs on the growth of Panc02.13 cells expressing vector only or YAPS6A construct grown under low or high densities were determined (Table 1).
(§2) The effect of gemcitabine on pancreatic cancer cell growth was studied using a kinetic cell growth assay. Pancreatic cancer cells were plated on 96-well plates (Essen ImageLock, Essen Instruments, MI, US) at varying densities (2-4×10^3 for low density or 15-20×10^3 for high density experiments). Small molecule inhibitors at different doses were added 24 hours after plating and cell confluence was monitored with Incucyte Live-Cell Imaging System and software (Essen Instruments). Confluence was observed every hour for 48-144h or until the control (DMSO only) samples reached 100% confluence.
as §2, with “Kinetic Cell growth assay. The” for “The”, “(2-4X103” for “(2-4×10^3”, “15-20X103” for “15-20×10^3”, “Incucyte™” for “Incucyte”

Assay [2] relates to Panc02.13 cells expressing YAPS6A construct. Description: Kinetic cell growth assay, Panc02.13 cells expressing YAPS6A. As to conditions: for EC50: YAPS6A construct. The method, then: as §1, §2
Cell lines (Panc02.13, Panc10.05 or Miapaca2) were transfected with YAPS6A constructs (Addgene) using Lipofectamine™ (Invitrogen, Carlsbad, Calif.) following the manufacturer's instructions and 48 hour post-transfection selected in 5-10 μg/ml Blasticidin (InvivoGen, San Diego, Calif.). The clones screened for YAPS6A expression by Western blot. Stable cell lines were maintained in complete medium and 5 μg/ml Blasticidin.
as §2, with “Kinetic Cell growth assay. The” for “The”, “(2-4X103” for “(2-4×10^3”, “15-20X103” for “15-20×10^3”, “Incucyte™” for “Incucyte”

The subject of assay [3] is Panc02.13 cells expressing the YAPS6A mutant. The experiment in a line: 3D spheroid growth assay, Panc02.13 cells expressing YAPS6A. As to conditions: YAP activity increased.
Assay [4] has as its system pancreatic cancer cell lines. The experiment in a line: Kinetic cell growth assay, panel of pancreatic cancer cell lines. As to conditions: for Dependence of cellular response on cell crowding: seven PDAC cell lines, threshold >100 fold difference in EC50; for Density dependence of efficacy: seven pancreatic cancer cell lines, sparse and dense conditions. The method, then: as §2
FIG. 20A illustrates the kinetic cell growth assay to determine the effect of gemcitabine in a panel of pancreatic cancer cell lines. Cells are plated at low crowding conditions (10-25% confluence) and 24 hours later exposed to gemcitabine in a dose-dependent manner. They are imaged every 1-3 hours until control (vehicle) treated cells reach 100% confluence. This assay is not confounded by the fact that the time required for each cell line to reach 100% confluence may be very different (as the cell lines have different doubling times). A dose response effect of gemcitabine on cell growth for 16 pancreatic cancer cell lines is shown in FIGS. 20B, 3, 31A-31C and 28, where the range of previous studies is also shown. […] Similar responses to gemcitabine were found in liver cancer cell lines (Huh7 and FOCUS) and untransformed (HEK293) cell lines (FIGS. 3, 31A-31C).
as §2, with “Kinetic Cell growth assay. The” for “The”, “(2-4X103” for “(2-4×10^3”, “15-20X103” for “15-20×10^3”, “Incucyte™” for “Incucyte”

[5] abbreviates: high density, read-out: High density (EC50, nM) 02.13-WT.
The mark [6] stands for this setting: low density, read-out: Low density (EC50, nM) 02.13-WT.
The mark [7] stands for this setting: high density, read-out: High density (EC50, nM) 02.13-YAPS6A.
Where [8] appears, read: low density, read-out: Low density (EC50, nM) 02.13-YAPS6A.
Setting [9] is: Homo sapiens, high density, read-out: High density (EC50, nM) 02.13-WT.
Where [10] appears, read: Homo sapiens, low density, read-out: Low density (EC50, nM) 02.13-WT.
Where [11] appears, read: Homo sapiens, low density, read-out: Low density (EC50, nM) 02.13-YAPS6A.
Where [12] appears, read: Homo sapiens, high density, read-out: High density (EC50, nM) 02.13-YAPS6A.

For orientation: EC50 means the concentration that produces a half-maximal response. Take Epothilone: the EC50 in assay [1] (setting [5]) was 20 nM; in assay [1] (setting [6]) it was below 1 nM; in assay [2] (setting [7]), 767 nM; in assay [2] (setting [8]), below 1 nM.

As to `Nc1ccn([C@@H]2O[C@H](CO)[C@@H](O)[C@@H]2O)c(=O)n1` [cytarabine], the “Efficacy in inhibiting cell growth when the Hippo pathway was inhibited” value (“Efficacy in inhibiting cell growth” below) in assay [3] is “increased efficacy in inhibiting cell growth”.

Consider `CO[C@@]12[C@H](COC(N)=O)C3=C(C(=O)C(C)=C(N)C3=O)N1C[C@@H]1N[C@@H]12` [mitomycin], for which the “Efficacy in inhibiting cell growth” value in assay [3] is recorded as “increased efficacy in inhibiting cell growth”.

As to `CC(=O)O[C@H]1C(=O)[C@@]2(C)[C@H]([C@H](OC(=O)c3ccccc3)[C@]3(O)C[C@H](OC(=O)[C@H](O)[C@@H](NC(=O)c4ccccc4)c4ccccc4)C(C)=C1C3(C)C)[C@]1(OC(C)=O)CO[C@@H]1C[C@@H]2O` [Paclitaxel], the EC50 stood at 1670 nM in assay [1] (setting [9]), 3 nM in assay [1] (setting [10]) and 3 nM in assay [2] (setting [11]). For the same compound, in assay [4], the “Dependence of cellular response on cell crowding” value (“Dependence of cellular response” below) is listed as “weak or no correlation with cell density”. Moreover, the “Density dependence of efficacy” value in assay [4] is given as “largely density independent”.

Regarding `C/C(=C\c1csc(C)n1)[C@@H]1C[C@@H]2O[C@]2(C)CCC[C@H](C)[C@H](O)[C@@H](C)C(=O)C(C)(C)[C@@H](O)CC(=O)N1` [ixabepilone], in assay [3], the “Efficacy in inhibiting cell growth” value is on record as “increased efficacy in inhibiting cell growth”.

For the compound `Nc1nc(Cl)nc2c1ncn2[C@@H]1O[C@H](CO)[C@@H](O)[C@@H]1F` [clofarabine], the “Efficacy in inhibiting cell growth” value in assay [3] is given as “increased efficacy in inhibiting cell growth”.

Regarding `Nc1nc2nc[nH]c2c(=S)[nH]1` [tioguanine], the “Efficacy in inhibiting cell growth” value in assay [3] is “increased efficacy in inhibiting cell growth”.

As for `O=c1[nH]cc(F)c(=O)[nH]1` [5-FU, 5-fluorouracil], the EC50 is above 10000 nM in assay [1] (setting [9]), 350 nM in assay [1] (setting [10]) and 3000 nM in assay [2] (setting [12]). Besides, the “Sensitization by expression of YAPS6A” value in assay [2] (suppression of the Hippo pathway, high cell density) is reported as “sensitized”. For the same compound, in assay [3], the “Efficacy in inhibiting cell growth” value was “increased efficacy in inhibiting cell growth”.

Take `CCc1c2c(nc3ccc(OC(=O)N4CCC(N5CCCCC5)CC4)cc13)-c1cc3c(c(=O)n1C2)COC(=O)[C@]3(O)CC` [Irrenotecan]: the EC50 in assay [1] (setting [5]) worked out at 8500 nM; in assay [1] (setting [6]), 1070 nM; in assay [2] (setting [7]), 1650 nM; in assay [2] (setting [8]) it was 1700 nM. Moreover, the “Efficacy in inhibiting cell growth” value in assay [3] is listed as “increased efficacy in inhibiting cell growth; also recorded: particularly significant inhibitory activity”.

For the compound `CC(=O)O[C@@]12CO[C@@H]1C[C@H](O)[C@@]1(C)C(=O)[C@H](O)C3=C(C)[C@@H](OC(=O)[C@H](O)[C@@H](NC(=O)OC(C)(C)C)c4ccccc4)C[C@@](O)([C@@H](OC(=O)c4ccccc4)[C@H]21)C3(C)C` [Docetaxel], the EC50 amounted to 2400 nM in assay [1] (setting [9]), 3.5 nM in assay [1] (setting [10]), 4820 nM in assay [2] (setting [12]) and 7 nM in assay [2] (setting [11]). Besides, the “Dependence of cellular response” value in assay [4] was “weak or no correlation with cell density”. The “Density dependence of efficacy” value in assay [4] was “largely density independent”.

As for `Cc1ccc(NC(=O)c2ccc(CN3CCN(C)CC3)cc2)cc1Nc1nccc(-c2cccnc2)n1` [imatinib], the “Efficacy in inhibiting cell growth” value in assay [3] is on record as “increased efficacy in inhibiting cell growth”.

Regarding `O=C1[O][Pt]2([NH][C@@H]3CCCC[C@H]3[NH]2)[O]C1=O` [Oxaliplatin], the EC50 in assay [1] (setting [5]) was 5200 nM; in assay [1] (setting [6]), 937 nM; in assay [2] (setting [7]), 3180 nM; in assay [2] (setting [8]) it was 5890 nM. The “Dependence of cellular response” value in assay [4] was “weak or no correlation with cell density”. The “Density dependence of efficacy” value in assay [4] is given as “largely density independent”.

Regarding `S=c1nc[nH]c2nc[nH]c12` [mercaptopurine], the “Efficacy in inhibiting cell growth” value in assay [3] is recorded as “increased efficacy in inhibiting cell growth”.
